# Read-outs that look alike come from different tables or passages of the source.
# Tests used:
# [1] = target: E. coli Enopyruvyl-UPD-N-acetylglucosamine reductase, Mur B (Escherichia coli, UniProt P08373); experiment: biochemical; settings: (E) E. coli enzyme; for IC50: read-out: MurB IC50 (converted)
# [2] = target: T1, S. aureus Uridine-diphosphate-N-acetvimuramoyl: L-alanine lipase, MurC (Staphylococcus aureus, UniProt Q2FXJ0); experiment: biochemical
# T1 sequence (Q2FXJ0 1-437): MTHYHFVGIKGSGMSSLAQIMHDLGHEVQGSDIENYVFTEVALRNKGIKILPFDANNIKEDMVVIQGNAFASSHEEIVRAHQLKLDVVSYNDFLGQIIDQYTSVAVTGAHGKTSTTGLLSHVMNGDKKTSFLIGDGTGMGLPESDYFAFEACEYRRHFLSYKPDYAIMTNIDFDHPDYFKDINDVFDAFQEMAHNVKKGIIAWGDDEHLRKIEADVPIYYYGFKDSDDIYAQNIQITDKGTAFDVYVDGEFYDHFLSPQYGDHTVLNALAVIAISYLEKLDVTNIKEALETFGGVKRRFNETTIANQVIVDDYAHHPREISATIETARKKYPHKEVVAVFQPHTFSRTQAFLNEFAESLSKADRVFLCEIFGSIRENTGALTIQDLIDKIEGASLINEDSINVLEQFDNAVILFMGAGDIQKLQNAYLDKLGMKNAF
# Protocol: S. aureus and E. coli Uridine-diphosphate-N-acetvimuramoyl: L-alanine lipase, MurC
# Preparation of Enzyme Solution:
# A 1 mg/mL stock solution of MurC is prepared in a buffer consisting of 20 mM Tris/HCl (pH 8.5) with 2.5 μM BME. The stock solution is further diluted with the buffer to give a final enzyme concentration of 100 μg/mL for the E. coli stock solution and 70 μg/mL for the S. aureus stock solution.
# Preparation of Test Compound Solutions:
# All test solutions are prepared in DMSO as 10 mg/mL, then diluted with 50 mM Tris/HCl (pH 8.5) to 100 μg/mL.
# Preparation of Stop Solution:
# The stop solution is prepared by stirring 1 part 4.2% ammonium molydbate in 4N HCl with 2 parts 0.045% malachite green for 30 min.
# In this evaluation, the inhibitory activity of a test compound against MurC, the enzyme which catalyzes the third step of bacterial cell wall bioxynthesis is determined. Experiments are performed by adding 2.5 μl buffer, 2.5 μl 0.5M NH4SO2, 5 μl 2 μM L-Ala, 5 μl enzyme solution and 6.5 μl test compound solution to each well in a 96-well microplate. After a pre-incubation period of 10 mins. at 23° C., 3.75 μl of a 0.75 μM solution of UDP-MurNac is added to each well. Following an incubation period of 10 mins. at 37° C., 210 μl stop solution and 50 μl of a 34% w/v sodium citrate solution are added and color is allowed to develop for 10 mins. at 23° C. (Lanzetta et al., Analytical Biochemistry, 1979, 95) Optical density readings are taken at 660 nm using a Molecular Devices Spectra Max 250 with Soft Max software. Controls are performed using the same procedure and omitting the addition of UDP-MurNac. […]
# Using these values the IC50 is determined by linear regression analysis.
# [3] = target: T2, S. aureus Uridine-diphosphate-N-acetylmuramoyl-L-alanine: D-glutamate liease, MurD (Staphylococcus aureus, UniProt Q2FZ92); experiment: biochemical; settings: (S) S. aureus enzyme
# T2 sequence (Q2FZ92 1-449): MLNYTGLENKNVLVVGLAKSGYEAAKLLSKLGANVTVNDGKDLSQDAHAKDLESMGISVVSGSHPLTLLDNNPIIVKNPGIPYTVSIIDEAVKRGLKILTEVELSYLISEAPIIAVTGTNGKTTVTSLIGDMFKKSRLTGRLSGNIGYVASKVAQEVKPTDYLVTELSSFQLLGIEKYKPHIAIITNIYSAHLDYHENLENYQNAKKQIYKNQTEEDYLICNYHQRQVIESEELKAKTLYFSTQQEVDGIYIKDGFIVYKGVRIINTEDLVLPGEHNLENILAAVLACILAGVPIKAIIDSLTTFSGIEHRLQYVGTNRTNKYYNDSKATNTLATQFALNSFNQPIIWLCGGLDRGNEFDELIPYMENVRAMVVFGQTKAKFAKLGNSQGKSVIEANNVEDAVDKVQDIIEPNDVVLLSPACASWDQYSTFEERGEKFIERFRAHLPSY
# Summary of the method: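 MurD, which catalyses the fourth step of cell wall biosynthesis, was tested for inhibition by compounds. Compounds were made up as 10 mg/mL DMSO stocks and diluted to 100 μg/mL in 50 mM Tris/HCl, pH 8.5.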
# staphylococci = experiment: Minimum inhibitory concentration, microdilution broth method, staphylococci; format: cell-based; settings: Mueller-Hinton broth, 18-22 hours at 35° C.; for MIC: Staphylococcus aureus
# Summary of the method: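 Recent clinical isolates, some resistant to methicillin, penicillin and/or vancomycin, were tested by the broth microdilution method of NCCLS Approved Standard M7-A5 2000. Mueller-Hinton broth served for staphylococci and enterococci, while streptococci received the same broth supplemented with 5% horse blood.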
# [4] = (S) S. aureus enzyme, read-out: MurC IC50 (converted)
# [5] = S. aureus GC 1131, read-out: MIC S. aureus GC 1131
# [6] = S. aureus GC 4543, read-out: MIC S. aureus GC 4543
# Chain of E. coli Enopyruvyl-UPD-N-acetylglucosamine reductase, Mur B (P08373 whole entry): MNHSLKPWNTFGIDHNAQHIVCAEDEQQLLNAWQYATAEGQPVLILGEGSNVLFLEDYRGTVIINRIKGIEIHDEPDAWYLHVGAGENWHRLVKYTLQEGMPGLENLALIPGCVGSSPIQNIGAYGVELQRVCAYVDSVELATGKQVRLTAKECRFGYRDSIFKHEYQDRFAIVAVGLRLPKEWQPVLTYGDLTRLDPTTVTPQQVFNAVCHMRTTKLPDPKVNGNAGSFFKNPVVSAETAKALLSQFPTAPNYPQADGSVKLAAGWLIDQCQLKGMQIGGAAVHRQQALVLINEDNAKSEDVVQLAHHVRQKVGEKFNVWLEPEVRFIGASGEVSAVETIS
SMILES,IC50 [1],"IC50 [2, 4]",IC50 [3],MIC (staphylococci; [5]),MIC (staphylococci; [6]),MurB IC50 [1],MurC IC50 ([2]; (S) S. aureus enzyme),MurD IC50 [3],MIC S. aureus GC 1131 (staphylococci; S. aureus GC 1131),MIC S. aureus GC 4543 (staphylococci; S. aureus GC 4543),IC50 [2]
Cc1cc(/C=C2\OC(=O)C(c3cc(Cl)cc(Cl)c3)=C2O)ccc1-c1ccccc1C(F)(F)F [Example 27],6.11 µM,> 50.9 µM,48.9 µM,0.5 µg/mL,0.5 µg/mL,,,,,,
Cc1ccccc1-c1ccc(/C=C2\OC(=O)C(c3cccc(Cl)c3)=C2O)cc1C [Example 28],7.45 µM,> 62.1 µM,> 62.1 µM,1 µg/mL,0.5 µg/mL,,,,,,
Cc1ccccc1-c1ccc(/C=C2\OC(=O)C(c3cc(Cl)cc(Cl)c3)=C2O)cc1C [Example 29],4.57 µM,54.9 µM,38.9 µM,0.5 µg/mL,0.5 µg/mL,,,,,,
Cc1cc(/C=C2\OC(=O)C(c3cccc(Cl)c3)=C2O)ccc1-c1ccccc1Cl [Example 30],4.72 µM,> 59.1 µM,> 59.1 µM,2 µg/mL,1 µg/mL,,,,,,
Cc1cc(C=C2OC(=O)C(c3cc(Cl)cc(Cl)c3)=C2O)ccc1-c1ccccc1Cl [Example 31],,,,,,2 (E); 2 (S) μg/mL,>25 (S) μg/mL,10 (S) μg/mL,0.5 µg/mL,0.25 µg/mL,
COc1cc(/C=C2\OC(=O)C(c3cccc(Cl)c3)=C2O)ccc1-c1ccccc1C(F)(F)F [Example 32],12.7 µM,25.4 µM,19 µM,2 µg/mL,2 µg/mL,,,,,,
COc1cc(/C=C2\OC(=O)C(c3cc(Cl)cc(Cl)c3)=C2O)ccc1-c1ccccc1C(F)(F)F [Example 33],3.94 µM,> 49.3 µM,> 49.3 µM,0.5 µg/mL,0.5 µg/mL,,,,,,
Cc1cc(/C=C2\OC(=O)C(c3cc(Cl)cc(Cl)c3)=C2O)ccc1-c1ccccc1OS(C)(=O)=O [Example 39],,,,,,8 µg/mL,8 (S) μg/mL,15 (S) μg/mL,2 µg/mL,4 µg/mL,
O=C1O/C(=C\c2cccc(C(F)(F)F)c2)C(O)=C1c1ccc2ccccc2c1 [Example 42],,47.1 µM,> 65.4 µM,8 µg/mL,8 µg/mL,10 (E) μg/mL,,,,,
O=C1O/C(=C\c2ccc(Cl)cc2)C(O)=C1c1ccc2ccccc2c1 [Example 43],17.2 µM,60.2 µM,> 71.7 µM,8 µg/mL,8 µg/mL,,,,,,
O=C1O/C(=C\C2CCCCC2)C(O)=C1c1ccc2ccccc2c1 [Example 51],> 78 µM,62.4 µM,> 78 µM,> 128 µg/mL,16 µg/mL,,,,,,
O=C1O/C(=C\c2ccc3ccccc3c2)C(O)=C1c1ccc2ccccc2c1 [Example 52],> 68.6 µM,> 68.6 µM,54.9 µM,16 µg/mL,16 µg/mL,,,,,,
O=C1O/C(=C\c2ccc(-c3ccccc3)cc2)C(O)=C1c1ccc(Cl)cc1 [Example 53],16 µM,18.7 µM,42.7 µM,16 µg/mL,16 µg/mL,,,,,,
O=C1O/C(=C\c2ccc3ccccc3c2)C(O)=C1c1ccc(Cl)cc1 [Example 54],22.9 µM,31.5 µM,> 71.7 µM,8 µg/mL,16 µg/mL,,,,,,
O=C1O/C(=C\c2ccc3ccccc3c2)C(O)=C1c1cccc2ccccc12 [Example 56],> 68.6 µM,30.2 µM,52.1 µM,16 µg/mL,32 µg/mL,,,,,,
O=C1O/C(=C\c2ccc(-c3ccccc3)cc2)C(O)=C1c1cc(Cl)cc(Cl)c1 [Example 67],2.44 µM,44 µM,19.5 µM,1 µg/mL,,,,,,0.5 µg/mL,
O=C1O/C(=C\c2ccc(-c3ccccc3)cc2)C(O)=C1c1cccc(Cl)c1 [Example 69],13.3 µM,13.3 µM,18.7 µM,2 µg/mL,1 µg/mL,,,,,,
O=C1O/C(=C\c2cccc3ccccc23)C(O)=C1c1cc(Cl)cc(Cl)c1 [Example 70],18.3 µM,20.9 µM,23.5 µM,2 µg/mL,1 µg/mL,,,,,,
O=C1O/C(=C\c2cccc3ccccc23)C(O)=C1c1ccc(C(F)(F)F)cc1 [Example 71],26.2 µM,,62.8 µM,8 µg/mL,8 µg/mL,,,,,,52.3 µM
COc1cccc(C2=C(O)/C(=C/c3cccc4ccccc34)OC2=O)c1 [Example 72],61 µM,> 72.6 µM,> 72.6 µM,> 128 µg/mL,> 128 µg/mL,,,,,,
COC(=O)c1ccc(C2=C(O)/C(=C/c3cccc4ccccc34)OC2=O)cc1 [Example 74],59.1 µM,48.3 µM,> 67.1 µM,64 µg/mL,> 128 µg/mL,,,,,,
CCOC(=O)c1cccc(C2=C(O)C(=Cc3cccc4ccccc34)OC2=O)c1 [Example 75],,,,,,> 25 µg/mL,20 µg/mL,>25 (E); >25 (S) μg/mL,64 µg/mL,>128 µg/mL,
O=Cc1cccc(C2=C(O)/C(=C/c3cccc4ccccc34)OC2=O)c1 [Example 76],20.4 µM,52.6 µM,> 73 µM,> 128 µg/mL,> 128 µg/mL,,,,,,
O=C1O/C(=C\c2cccc3ccccc23)C(O)=C1c1cccc(C=NO)c1 [Example 77],,,,,,21 µg/mL,15 µg/mL,>25 (S) μg/mL,>128 µg/mL,64 µg/mL,
CN(C)c1ccc(/C=C2\OC(=O)C(c3ccc(Cl)cc3)=C2O)c2ccccc12 [Example 78],7.66 µM,53.6 µM,> 63.8 µM,32 µg/mL,32 µg/mL,,,,,,
CN(C)c1ccc(/C=C2\OC(=O)C(c3cc(Cl)cc(Cl)c3)=C2O)c2ccccc12 [Example 79],14.1 µM,56.3 µM,32.8 µM,2 µg/mL,1 µg/mL,,,,,,
CN(C)c1ccc(C=C2OC(=O)C(c3cc(Cl)cc(Cl)c3)=C2O)c2ccccc12 [Example 80],,,,,,3 µg/mL,18 (S) μg/mL,13 (S) μg/mL,2 µg/mL,1 µg/mL,
CN(C)c1ccc(/C=C2\OC(=O)C(c3ccc(C(F)(F)F)cc3)=C2O)c2ccccc12 [Example 81],54.1 µM,37.6 µM,> 58.8 µM,8 µg/mL,8 µg/mL,,,,,,
